From PubChem BioAssay AID268 (DTP/NCI, 2004)
Several values for one entry are separate records, joined by “and”; a condition that tells them apart may be missing. Identical values can stand only once.

System: CD2F1 mice, P1798 lymphosarcoma sc, tumor weight T/C
Experiment: NCI In Vivo Anticancer Drug Screen. Data for tumor model P1798 Lymphosarcoma (subcutaneous) in CD2F1 (CDF1) mice
Conditions: higher = larger tumour
Protocol: The antitumor activity of compounds was measured in mice bearing transplantable tumors. Survival or tumor size were measured and the results are expressed as the measurement made in the treated group (T) divided by the measurement made in the vehicle treated control group (C). The tumor model used in this assay is P1798 Lymphosarcoma (subcutaneous) in CD2F1 (CDF1) mice

[1] = endpoint: mean tumor weight, dose: 6.25 mg/kg/injection, schedule: Q02DX010 (sc), vehicle: steriod suspending solution
[2] = endpoint: mean tumor weight, dose: 12.5 mg/kg/injection, schedule: Q01DX005 (sc), vehicle: steriod suspending solution
[3] = endpoint: mean tumor weight, dose: 12.5 mg/kg/injection, schedule: Q02DX010 (sc), vehicle: steriod suspending solution
[4] = endpoint: mean tumor weight, dose: 25.0 mg/kg/injection, schedule: Q01DX005 (sc), vehicle: steriod suspending solution
[5] = endpoint: mean tumor weight, dose: 25.0 mg/kg/injection, schedule: Q02DX010 (sc), vehicle: steriod suspending solution
[6] = endpoint: mean tumor weight, dose: 50.0 mg/kg/injection, schedule: Q01DX005 (sc), vehicle: steriod suspending solution
[7] = endpoint: mean tumor weight, dose: 100.0 mg/kg/injection, schedule: Q01DX005 (sc), vehicle: steriod suspending solution
[8] = endpoint: mean tumor weight, dose: 10.0 mg/kg/injection, schedule: Q01DX010 (ip), vehicle: saline
[9] = endpoint: mean tumor weight, dose: 20.0 mg/kg/injection, schedule: Q01DX010 (ip), vehicle: saline
[10] = endpoint: mean tumor weight, dose: 40.0 mg/kg/injection, schedule: Q01DX010 (ip), vehicle: saline
[11] = endpoint: mean tumor weight, dose: 12.5 mg/kg/injection, schedule: Q01DX010 (ip), vehicle: saline
[12] = endpoint: mean tumor weight, dose: 25.0 mg/kg/injection, schedule: Q01DX010 (ip), vehicle: saline
[13] = endpoint: mean tumor weight, dose: 50.0 mg/kg/injection, schedule: Q01DX010 (ip), vehicle: saline
[14] = endpoint: mean tumor weight, dose: 100.0 mg/kg/injection, schedule: Q01DX010 (ip), vehicle: saline
[15] = endpoint: mean tumor weight, dose: 3.0 mg/kg/injection, schedule: Q01DX010 (ip), vehicle: saline
[16] = endpoint: mean tumor weight, dose: 0.5 mg/kg/injection, schedule: Q01DX010 (ip), vehicle: saline

SMILES: CC(=O)OCC(=O)[C@@]1(O)CC[C@H]2[C@@H]3CCC4=CC(=O)[C@H](C)C[C@]4(C)[C@@]3(F)[C@@H](O)C[C@@]21C
- T/C (endpoint: mean tumor weight, dose: 3.75 mg/kg/injection, schedule: Q01DX Z (sc), vehicle: steriod suspending solution): 94 % of control
- T/C (endpoint: mean tumor weight, dose: 6.25 mg/kg/injection, schedule: Q01DX010 (sc), vehicle: steriod suspending solution): 111 % of control
- T/C [1]: 94 % of control
- T/C (endpoint: mean tumor weight, dose: 7.5 mg/kg/injection, schedule: Q01DX Z (sc), vehicle: steriod suspending solution): 111 % of control
- T/C [2]: 38 % of control
- T/C [3]: 101 % of control
- T/C (endpoint: mean tumor weight, dose: 15.0 mg/kg/injection, schedule: Q01DX Z (sc), vehicle: steriod suspending solution): 74 % of control
- T/C [4]: 5 % of control
- T/C (endpoint: mean tumor weight, dose: 25.0 mg/kg/injection, schedule: Q01DX010 (sc), vehicle: steriod suspending solution): 1 % of control and 2 % of control and 26 % of control
- T/C [5]: 89 % of control
- T/C (endpoint: mean tumor weight, dose: 30.0 mg/kg/injection, schedule: Q01DX Z (sc), vehicle: steriod suspending solution): 74 % of control
- T/C [6]: 2 % of control
- T/C (endpoint: mean tumor weight, dose: 60.0 mg/kg/injection, schedule: Q01DX Z (sc), vehicle: steriod suspending solution): 88 % of control
- T/C [7]: 1 % of control

SMILES: Nc1ccn(C2OC(CO)C(O)C2O)c(=O)n1 (configuration not stated)
- T/C [8]: 12 % of control
- T/C (endpoint: mean tumor weight, dose: 18.0 mg/kg/injection, schedule: Q01DX010 (ip), vehicle: saline): 31 % of control
- T/C [9]: 10 % of control
- T/C (endpoint: mean tumor weight, dose: 27.0 mg/kg/injection, schedule: Q01DX010 (ip), vehicle: saline): 12 % of control
- T/C [10]: 4 % of control and 6 % of control
- T/C (endpoint: mean tumor weight, dose: 60.0 mg/kg/injection, schedule: Q01DX010 (ip), vehicle: saline): 1 % of control

SMILES: COc1cc(-c2ccc(Nc3ccccc3C(=O)O)c(OC)c2)ccc1N
- T/C [9]: 82 % of control
- T/C [10]: 52 % of control

SMILES: C[C@]12CCC(=O)C=C1CC[C@H]1[C@@H]3CC[C@@]4(OCC4=O)[C@@]3(C)C[C@H](O)[C@@]12F
- T/C (endpoint: mean tumor weight, dose: 10.0 mg/kg/injection, schedule: Q01DX010 (sc), vehicle: steriod suspending solution): 59 % of control
- T/C (endpoint: mean tumor weight, dose: 20.0 mg/kg/injection, schedule: Q01DX010 (sc), vehicle: steriod suspending solution): 43 % of control
- T/C (endpoint: mean tumor weight, dose: 40.0 mg/kg/injection, schedule: Q01DX010 (sc), vehicle: steriod suspending solution): 48 % of control
- T/C (endpoint: mean tumor weight, dose: 80.0 mg/kg/injection, schedule: Q01DX010 (sc), vehicle: steriod suspending solution): 16 % of control
- T/C (endpoint: mean tumor weight, dose: 160.0 mg/kg/injection, schedule: Q01DX010 (sc), vehicle: steriod suspending solution): 7 % of control
- T/C (endpoint: mean tumor weight, dose: 320.0 mg/kg/injection, schedule: Q01DX010 (sc), vehicle: steriod suspending solution): 1 % of control

SMILES: C[C@@H]1C[C@H]2[C@@H]3CCC4=CC(=O)C=C[C@]4(C)[C@@]3(F)[C@@H](O)C[C@]2(C)[C@@]1(O)C(=O)CO
- T/C (endpoint: mean tumor weight (est.), dose: 3.13 mg/kg/injection, schedule: Q01DX016 (sc), vehicle: saline): 55 % of control
- T/C (endpoint: mean tumor weight (est.), dose: 6.25 mg/kg/injection, schedule: Q01DX016 (sc), vehicle: saline): 7 % of control
- T/C (endpoint: mean tumor weight, dose: 3.13 mg/kg/injection, schedule: Q01DX005 (sc), vehicle: steriod suspending solution): 33 % of control
- T/C (endpoint: mean tumor weight, dose: 3.13 mg/kg/injection, schedule: Q01DX010 (sc), vehicle: steriod suspending solution): 5 % of control
- T/C (endpoint: mean tumor weight, dose: 6.25 mg/kg/injection, schedule: Q01DX005 (sc), vehicle: steriod suspending solution): 8 % of control
- T/C [1]: 116 % of control
- T/C [2]: 4 % of control
- T/C [3]: 98 % of control
- T/C [4]: 1 % of control
- T/C [5]: 56 % of control

SMILES: CCC(=O)O[C@H]1CC[C@H]2[C@@H]3CC[C@H]4CC(=O)[C@H](C)C[C@]4(C)[C@H]3CC[C@]12C
- T/C (endpoint: mean tumor weight, dose: 15.6 mg/kg/injection, schedule: Q01DX010 (sc), vehicle: steriod suspending solution): 110 % of control
- T/C (endpoint: mean tumor weight, dose: 31.3 mg/kg/injection, schedule: Q01DX010 (sc), vehicle: steriod suspending solution): 120 % of control
- T/C (endpoint: mean tumor weight, dose: 62.5 mg/kg/injection, schedule: Q01DX010 (sc), vehicle: steriod suspending solution): 112 % of control
- T/C (endpoint: mean tumor weight, dose: 125.0 mg/kg/injection, schedule: Q01DX010 (sc), vehicle: steriod suspending solution): 91 % of control and 77 % of control
- T/C (endpoint: mean tumor weight, dose: 250.0 mg/kg/injection, schedule: Q01DX010 (sc), vehicle: steriod suspending solution): 88 % of control
- T/C (endpoint: mean tumor weight, dose: 500.0 mg/kg/injection, schedule: Q01DX010 (sc), vehicle: steriod suspending solution): 96 % of control
- T/C (endpoint: mean tumor weight, dose: 1000.0 mg/kg/injection, schedule: Q01DX010 (sc), vehicle: steriod suspending solution): 88 % of control

SMILES: CC1CC(C)OS(=O)O1 (configuration not stated)
- T/C (endpoint: mean tumor weight, dose: 44.0 mg/kg/injection, schedule: Q01DX010 (ip), vehicle: saline): 70 % of control
- T/C (endpoint: mean tumor weight, dose: 66.0 mg/kg/injection, schedule: Q01DX010 (ip), vehicle: saline): 30 % of control

SMILES: NCCCC(N)C(=O)NCCCCCCNCCCCCCNC(=O)C(N)CCCN (configuration not stated)
- T/C [11]: 86 % of control
- T/C [12]: 62 % of control
- T/C [13]: 77 % of control
- T/C [14]: 34 % of control

SMILES: Nc1c(N=Nc2ccc([N+](=O)[O-])cc2)c(S(=O)(=O)O)cc2cc(S(=O)(=O)O)c(N=Nc3ccc(Sc4ccc(N=Nc5ccc(O)cc5)cc4)cc3)c(O)c12 (tested in a mixture with another compound)
- T/C [13]: 119 % of control
- T/C [14]: 76 % of control
- T/C (endpoint: mean tumor weight, dose: 200.0 mg/kg/injection, schedule: Q01DX010 (ip), vehicle: saline): 31 % of control
- T/C (endpoint: mean tumor weight, dose: 400.0 mg/kg/injection, schedule: Q01DX010 (ip), vehicle: saline): 20 % of control

SMILES: COc1cc(C[C@H]2c3cc(OC)c(OC)cc3CCN2C)c(Oc2cc3c(cc2OC)-c2c(OC)c(OC)cc4c2[C@H](C3)N(C)CC4)cc1OC
- T/C (endpoint: mean tumor weight, dose: 50.0 mg/kg/injection, schedule: Q01DX011 (ip), vehicle: carboxymethylcellulose (CMC)): 13 % of control

SMILES: N=C(N)c1ccc(Nc2ccc(C(=N)N)cc2)cc1
- T/C (endpoint: mean tumor weight, dose: 1.5 mg/kg/injection, schedule: Q01DX010 (ip), vehicle: saline): 85 % of control
- T/C [15]: 82 % of control
- T/C (endpoint: mean tumor weight, dose: 6.0 mg/kg/injection, schedule: Q01DX010 (ip), vehicle: saline): 119 % of control
- T/C (endpoint: mean tumor weight, dose: 12.0 mg/kg/injection, schedule: Q01DX010 (ip), vehicle: saline): 77 % of control

SMILES: CSCS(=O)C[C@H](CO)NC(=O)/C=C/c1c(C)[nH]c(=O)[nH]c1=O (some centres not stated)
- T/C (endpoint: mean tumor weight, dose: 0.13 mg/kg/injection, schedule: Q01DX010 (ip), vehicle: saline): 94 % of control
- T/C (endpoint: mean tumor weight, dose: 0.25 mg/kg/injection, schedule: Q01DX010 (ip), vehicle: saline): 99 % of control
- T/C [16]: 15 % of control

SMILES: CC(=O)[C@@]1(O)CC[C@H]2[C@@H]3C[C@H](C)C4=CC(=O)C=C[C@]4(C)[C@@]3(F)[C@@H](O)C[C@@]21C
- T/C [2]: 3 % of control
- T/C (endpoint: mean tumor weight, dose: 12.5 mg/kg/injection, schedule: Q01DX010 (sc), vehicle: steriod suspending solution): 18 % of control and 41 % of control
- T/C [4]: 3 % of control
- T/C [5]: 98 % of control
- T/C [6]: 2 % of control
- T/C (endpoint: mean tumor weight, dose: 50.0 mg/kg/injection, schedule: Q02DX010 (sc), vehicle: steriod suspending solution): 93 % of control
- T/C [7]: 1 % of control
- T/C (endpoint: mean tumor weight, dose: 100.0 mg/kg/injection, schedule: Q02DX010 (sc), vehicle: steriod suspending solution): 98 % of control

SMILES: CCN(CC)CCCC(C)Nc1c2ccc(Cl)cc2nc2ccc(OC)cc12 (configuration not stated)
- T/C [11]: 103 % of control
- T/C [12]: 103 % of control and 88 % of control
- T/C [13]: 81 % of control and 85 % of control
- T/C [14]: 61 % of control and 64 % of control

SMILES: NC1(C(=O)O)CCCC1
- T/C (endpoint: mean tumor weight, dose: 22.5 mg/kg/injection, schedule: Q01DX010 (ip), vehicle: saline): 40 % of control and 48 % of control
- T/C (endpoint: mean tumor weight, dose: 45.0 mg/kg/injection, schedule: Q01DX010 (ip), vehicle: saline): 21 % of control and 38 % of control
- T/C (endpoint: mean tumor weight, dose: 90.0 mg/kg/injection, schedule: Q01DX010 (ip), vehicle: saline): 4 % of control

SMILES: C[C@@H]1C[C@@H]([C@H](O)CC2CC(=O)NC(=O)C2)C(=O)[C@@H](C)C1
- T/C (endpoint: mean tumor weight, dose: 5.0 mg/kg/injection, schedule: Q01DX010 (ip), vehicle: saline): 80 % of control and 81 % of control
- T/C [8]: 99 % of control and 103 % of control
- T/C [9]: 63 % of control and 75 % of control
- T/C [10]: 43 % of control and 60 % of control

SMILES: Nc1nc(F)nc2c1ncn2C1OC(CO)C(O)C1O (configuration not stated)
- T/C [16]: 76 % of control
- T/C (endpoint: mean tumor weight, dose: 1.0 mg/kg/injection, schedule: Q01DX010 (ip), vehicle: saline): 94 % of control
- T/C (endpoint: mean tumor weight, dose: 2.0 mg/kg/injection, schedule: Q01DX010 (ip), vehicle: saline): 73 % of control
- T/C [15]: 62 % of control
- T/C (endpoint: mean tumor weight, dose: 4.0 mg/kg/injection, schedule: Q01DX010 (ip), vehicle: saline): 35 % of control
